How the values were obtained:
Pseudomonas = experiment: Bacterial proliferation assay (Colony Forming Units) with added silver; type: cell-based; conditions: for added Ag^+ concentration at which antibacterial efficacy is apparent: 0.3 ppm is the lowest concentration measured (range 0.3 to 300 ppm)
Experimental: To assess the antibacterial efficacy of the silver, and to correlate this with the sensor response, bacterial proliferation assays were performed on MHB2, PBS, NaNO3 and SWF solutions with added silver at concentrations between 0.3 to 300 ppm.

[1] = Optical density measurements indicating AgCl precipitates/aggregates in solution; type: physicochemical; conditions: no bacteria present
Source text: Optical density measurements can be used to indicate the presence of AgCl precipitates/aggregates in solution. […] No bacteria where present for the measurements.

[Ag+] [Ag^+, silver ions]
added Ag^+ concentration at which antibacterial efficacy is apparent (Pseudomonas; NaNO3 solution): ≤ 0.3 ppm | added Ag^+ concentration at which antibacterial efficacy is apparent (Pseudomonas; PBS solution): ≤ 0.3 ppm | added Ag^+ concentration at which antibacterial efficacy is seen (Pseudomonas; SWF (simulated wound fluid, 33 g/L BSA) solution): ≥ 30 ppm | added Ag^+ concentration above which AgCl precipitation is seen (optical density) ([1]; PBS): above 1 ppm | added Ag^+ concentration above which AgCl precipitation is seen (optical density) ([1]; SWF): above 30 ppm
